# Reference: US20240285571A1, “METHODS OF TREATING BONE INFECTIONS” (MICROBION CORPORATION, priority 2020, published 2024)
# Legend:
# [1] = test system: S. pneumoniae; conditions: S. pneumoniae MMX 6837 (ATCC 49619); cited from earlier work
# [2] = test system: beta-hemolytic streptococci; test: MIC summary, beta-hemolytic streptococci (Example 5); format: cell-based, S. pyogenes, S. agalactiae; conditions: beta-hemolytic streptococci (Table 6); read-out: MIC values across isolates
# Description: (§1) Test and Comparator Agents: The test agents were stored at room temperature until assayed. All test agents were suspended and diluted in 100% dimethylsulfoxide (DMSO), and were ultimately tested at a final concentration of 0.06-64 μg/mL. The stock solutions were allowed to stand for at least 1 hr prior to use to auto-sterilize.
# TestMedia: Test media were prepared and stored in accordance with guidelines from CLSI (4, 6, 7). […] Neisseria gonorrhoeae were evaluated by agar dilution using agar consisting of GC medium base (BD; Lot No. 4274618) supplemented with 1% IsoVitaleX (BD; Lot No. 5246843).
# Broth Microdilution MC Testing (Aerobic Bacteria and Yeast): The broth microdilution assay method employed for the susceptibility testing of aerobic bacteria (excluding N. gonorrhoeae which was evaluated by agar dilution) and yeast essentially followed the procedures described by CLSI (3, 4, 7, 8) and employed automated liquid handlers to conduct serial dilutions and liquid transfers. […]
# Plates were stacked 4 high, covered with a lid on the top plate, placed into plastic bags, and incubated at 35° C. for approximately 24-48 hr for all yeast isolates and 16-24 hr for aerobic bacteria. […] MIC endpoints for the test agents and control compounds were read per CLSI criteria (3, 7).
# [3] = test system: anaerobes; test: MIC summary, anaerobes (Example 5); format: cell-based, Bacteroides fragilis and Clostridium difficile; conditions: read-out: MIC values across isolates
# Description: as §1
# The susceptibility of anaerobic bacteria was determined by agar dilution using Brucella Agar (BD/BBL; Lot No. 5237692) supplemented with 5 μg/mL hemin (Sigma, St. Louis, MO; Lot No. 108K1088), 1 μg/mL Vitamin K1 and 5% (v/v) laked sheep blood (Cleveland Scientific, Bath, OH; Lot No. 322799).
# Agar Dilution MIC Testing (Anaerobic Bacteria and Gonococci): MIC values for anaerobic bacteria were determined using a reference agar dilution method as described by CLSI (6). Organisms were grown at 35° C. in the Bactron II Anaerobic Chamber (Shel Lab, Cornelius, OR) for approximately 48 hr prior to the assay. Drug dilutions and drug-supplemented agar plates were prepared manually per CLSI (6). The plates were allowed to stand at room temperature for 1 hr to allow the agar surface to dry and pre-reduced for approximately 1 hr in the anaerobe chamber prior to inoculation. Each isolate was suspended to the equivalent of a 0.5 McFarland standard in Brucella broth using a turbidity meter (Dade Behring MicroScan, West Sacramento, CA). […] The MIC was read per CLSI guidelines (6).
# [4] = test system: Achromobacter spp. biofilm; test: Activity against biofilms (Example 7); format: cell-based; conditions: tested up to 250 μg/mL
smiles,measurement,setting,value
C[C@@H](O)[C@H]1C(=O)N2C(C(=O)O)=C(S[C@@H]3CN[C@H](C(=O)N(C)C)C3)[C@H](C)[C@H]12 [Meropenem],CLSI QC range of MIC,[1],(0.06-0.25) μg/mL
"OCC(S)CS.[Bi] (stereo not shown) [MB-2B, bismuth-2,3-dimercaptopropanol]",MIC,[2],0.25 to 8 µg/mL
same,MIC,[3],2 to 16 µg/mL
"CC(S)C(C)S.[Bi] (stereo not shown) [MB-6, bismuth-2,3-butanedithiol]",Reduction in viable biofilm cells,[4],5 log
